Measured values reported in PubChem BioAssay (NCI).
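96-well plates; 48 h exposure; 5 concentrations. Endpoints by linear interpolation between flanking doses. Not reached: highest tested concentration assigned. Abbreviation: GI50, concentration required for 50% inhibition of growth. TGI is the concentration that stops growth completely.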

Experiments:
Test in all cases: NCI anticancer screen, dose series, 48 h
SR leukemia = test system: SR leukemia
DU-145 prostate = test system: DU-145 prostate
NCI-H226 lung = test system: NCI-H226 lung
NCI-H522 lung = test system: NCI-H522 lung
IGROV1 ovarian = test system: IGROV1 ovarian
SNB-19 CNS = test system: SNB-19 CNS
NCI-H460 lung = test system: NCI-H460 lung
SF-268 CNS = test system: SF-268 CNS
U251 CNS = test system: U251 CNS
SK-MEL-5 melanoma = test system: SK-MEL-5 melanoma
UACC-257 melanoma = test system: UACC-257 melanoma
SW-620 colon = test system: SW-620 colon
RXF 393 renal = test system: RXF 393 renal
HOP-92 NSCLC = test system: HOP-92 NSCLC
CCRF-CEM leukemia = test system: CCRF-CEM leukemia
UO-31 renal = test system: UO-31 renal
UACC-62 melanoma = test system: UACC-62 melanoma
OVCAR-8 ovarian = test system: OVCAR-8 ovarian
SK-MEL-28 melanoma = test system: SK-MEL-28 melanoma
SNB-75 CNS = test system: SNB-75 CNS
NCI-H23 lung = test system: NCI-H23 lung
OVCAR-5 ovarian = test system: OVCAR-5 ovarian
SF-539 CNS = test system: SF-539 CNS
A549 NSCLC = test system: A549 NSCLC
MCF7 breast = test system: MCF7 breast
HS 578T breast = test system: HS 578T breast
SN12C renal = test system: SN12C renal
HCT-15 colon = test system: HCT-15 colon
MDA-MB-231 breast = test system: MDA-MB-231 breast
T-47D breast = test system: T-47D breast
MDA-MB-468 breast = test system: MDA-MB-468 breast
EKVX NSCLC = test system: EKVX NSCLC
OVCAR-4 ovarian = test system: OVCAR-4 ovarian
ACHN renal = test system: ACHN renal
RPMI-8226 leukemia = test system: RPMI-8226 leukemia
BT-549 breast = test system: BT-549 breast
HL-60(TB) leukemia = test system: HL-60(TB) leukemia
HT29 colon = test system: HT29 colon
NCI/ADR-RES ovarian = test system: NCI/ADR-RES ovarian
HCC-2998 colon = test system: HCC-2998 colon
SF-295 CNS = test system: SF-295 CNS
HOP-62 NSCLC = test system: HOP-62 NSCLC
COLO 205 colon = test system: COLO 205 colon
LOX IMVI melanoma = test system: LOX IMVI melanoma
MOLT-4 leukemia = test system: MOLT-4 leukemia
A498 renal = test system: A498 renal
786-0 renal = test system: 786-0 renal
CAKI-1 renal = test system: CAKI-1 renal
OVCAR-3 ovarian = test system: OVCAR-3 ovarian
SK-OV-3 ovarian = test system: SK-OV-3 ovarian
TK-10 renal = test system: TK-10 renal
PC-3 prostate = test system: PC-3 prostate
HCT-116 colon = test system: HCT-116 colon
MDA-MB-435 = test system: MDA-MB-435
KM12 colon = test system: KM12 colon
M14 melanoma = test system: M14 melanoma
MALME-3M melanoma = test system: MALME-3M melanoma
K-562 leukemia = test system: K-562 leukemia

`C[C@@H]1CN(c2ccc3ncc(C#Cc4cncc(C(=O)Nc5ccc(CN6CCN(C)CC6)c(C(F)(F)F)c5)c4)n3n2)C[C@@H](C)O1` was tested, and the GI50 (SR leukemia) was 499 nM, the TGI (SR leukemia) was 10300 nM and the GI50 (DU-145 prostate) was 332 nM. For the same molecule, the TGI (DU-145 prostate) was 923 nM, the GI50 (NCI-H226 lung) was 87.9 nM and the TGI (NCI-H226 lung) was 574 nM. The GI50 (NCI-H522 lung) was 261 nM, the TGI (NCI-H522 lung) was 525 nM and the GI50 (IGROV1 ovarian) was 276 nM. For the same molecule, the TGI (IGROV1 ovarian) was 772 nM, the GI50 (SNB-19 CNS) was 467 nM and the TGI (SNB-19 CNS) was 1260 nM. For the same molecule, the GI50 (NCI-H460 lung) was 379 nM, the TGI (NCI-H460 lung) was 1040 nM and the GI50 (SF-268 CNS) was 299 nM. For the same molecule, the TGI (SF-268 CNS) was 1130 nM, the GI50 (U251 CNS) was 362 nM and the TGI (U251 CNS) was 1010 nM. The GI50 (SK-MEL-5 melanoma) was 673 nM, the TGI (SK-MEL-5 melanoma) was 1370 nM and the GI50 (UACC-257 melanoma) was 737 nM. For the same molecule, the TGI (UACC-257 melanoma) was 3510 nM, the GI50 (SW-620 colon) was 277 nM and the TGI (SW-620 colon) was 768 nM. For the same molecule, the GI50 (RXF 393 renal) was 187 nM, the TGI (RXF 393 renal) was 432 nM and the GI50 (HOP-92 NSCLC) was 124 nM. For the same molecule, the TGI (HOP-92 NSCLC) was 496 nM, the GI50 (CCRF-CEM leukemia) was 475 nM and the TGI (CCRF-CEM leukemia) was 1530 nM. It also gave a GI50 (UO-31 renal) of 128 nM, a TGI (UO-31 renal) of 462 nM and a GI50 (UACC-62 melanoma) of 310 nM. For the same molecule, the TGI (UACC-62 melanoma) was 989 nM, the GI50 (OVCAR-8 ovarian) was 366 nM and the TGI (OVCAR-8 ovarian) was 1050 nM. It also gave a GI50 (SK-MEL-28 melanoma) of 520 nM, a TGI (SK-MEL-28 melanoma) of 1230 nM and a GI50 (SNB-75 CNS) of 61.6 nM. For the same molecule, the TGI (SNB-75 CNS) was 188 nM, the GI50 (NCI-H23 lung) was 268 nM and the TGI (NCI-H23 lung) was 617 nM. The GI50 (OVCAR-5 ovarian) was 363 nM, the TGI (OVCAR-5 ovarian) was 922 nM and the GI50 (SF-539 CNS) was 142 nM. It also gave a TGI (SF-539 CNS) of 382 nM, a GI50 (A549 NSCLC) of 340 nM and a TGI (A549 NSCLC) of 938 nM. The GI50 (MCF7 breast) was 229 nM, the TGI (MCF7 breast) was 679 nM and the GI50 (HS 578T breast) was 166 nM. For the same molecule, the TGI (HS 578T breast) was 794 nM, the GI50 (SN12C renal) was 143 nM and the TGI (SN12C renal) was 647 nM. For the same molecule, the GI50 (HCT-15 colon) was 286 nM, the TGI (HCT-15 colon) was 632 nM and the GI50 (MDA-MB-231 breast) was 59.5 nM. For the same molecule, the TGI (MDA-MB-231 breast) was 207 nM, the GI50 (T-47D breast) was 754 nM and the TGI (T-47D breast) was 2220 nM. For the same molecule, the GI50 (MDA-MB-468 breast) was 216 nM, the TGI (MDA-MB-468 breast) was 452 nM and the GI50 (EKVX NSCLC) was 227 nM. For the same molecule, the TGI (EKVX NSCLC) was 654 nM, the GI50 (OVCAR-4 ovarian) was 263 nM and the TGI (OVCAR-4 ovarian) was 1240 nM. For the same molecule, the GI50 (ACHN renal) was 242 nM, the TGI (ACHN renal) was 680 nM and the GI50 (RPMI-8226 leukemia) was 507 nM. The TGI (RPMI-8226 leukemia) was 2030 nM, the GI50 (BT-549 breast) was 349 nM and the TGI (BT-549 breast) was 1200 nM. The GI50 (HL-60(TB) leukemia) was 421 nM, the TGI (HL-60(TB) leukemia) was 1170 nM and the GI50 (HT29 colon) was 311 nM. The TGI (HT29 colon) was 979 nM, the GI50 (NCI/ADR-RES ovarian) was 899 nM and the TGI (NCI/ADR-RES ovarian) was 1850 nM. It also gave a GI50 (HCC-2998 colon) of 426 nM, a TGI (HCC-2998 colon) of 1010 nM and a GI50 (SF-295 CNS) of 332 nM. The TGI (SF-295 CNS) was 1010 nM, the GI50 (HOP-62 NSCLC) was 318 nM and the TGI (HOP-62 NSCLC) was 968 nM. It also gave a GI50 (COLO 205 colon) of 316 nM, a TGI (COLO 205 colon) of 719 nM and a GI50 (LOX IMVI melanoma) of 222 nM. It also gave a TGI (LOX IMVI melanoma) of 468 nM, a GI50 (MOLT-4 leukemia) of 297 nM and a TGI (MOLT-4 leukemia) of 4090 nM. The GI50 (A498 renal) was 678 nM, the TGI (A498 renal) was 1370 nM and the GI50 (786-0 renal) was 407 nM. The TGI (786-0 renal) was 986 nM, the GI50 (CAKI-1 renal) was 1370 nM and the TGI (CAKI-1 renal) was 3890 nM. It also gave a GI50 (OVCAR-3 ovarian) of 328 nM, a TGI (OVCAR-3 ovarian) of 1130 nM and a GI50 (SK-OV-3 ovarian) of 510 nM. It also gave a TGI (SK-OV-3 ovarian) of 1570 nM, a GI50 (TK-10 renal) of 299 nM and a TGI (TK-10 renal) of 727 nM. The GI50 (PC-3 prostate) was 507 nM, the TGI (PC-3 prostate) was 1810 nM and the GI50 (HCT-116 colon) was 270 nM. The TGI (HCT-116 colon) was 790 nM, the GI50 (MDA-MB-435) was 281 nM and the TGI (MDA-MB-435) was 833 nM. For the same molecule, the GI50 (KM12 colon) was 11.4 nM, the TGI (KM12 colon) was 534 nM and the GI50 (M14 melanoma) was 280 nM. The TGI (M14 melanoma) was 771 nM, the GI50 (MALME-3M melanoma) was 276 nM and the TGI (MALME-3M melanoma) was 826 nM. For the same molecule, the GI50 (K-562 leukemia) was 33.6 nM and the TGI (K-562 leukemia) was 2730 nM.
